Here are results for 17 compounds from DBAASP.

Values after ≈ are worked out from the molar mass of the structure shown.

Holding throughout (test): ≥ marks a high value that may be exact or a test limit, other limits are often not marked, values filed in µg/mL are converted to µM
Test [1] has as its system Staphylococcus aureus ATCC 25923.
Test [2] concerns Pseudomonas aeruginosa ATCC 27853.
The subject of test [3] is Escherichia coli ATCC 25922.
The test system of the next test is Escherichia coli.

For `CC(C)C[C@H](NC(=O)[C@H](CCCCN)NC(=O)CNC(=O)[C@H](CC(C)C)NC(=O)[C@H](CCCCN)NC(=O)[C@H](CCCCN)NC(=O)CNC(=O)[C@H](CC(C)C)NC(=O)[C@H](CCCCN)NC(=O)CNC(=O)[C@H](CC(C)C)NC(=O)[C@H](CCCCN)NC(=O)[C@H](CCCCN)NC(=O)CNC(=O)[C@H](CC(C)C)NC(=O)[C@@H](N)CCCCN)C(=O)NCC(=O)N[C@@H](CCCCN)C(=O)N[C@@H](CCCCN)C(=O)N[C@@H](CC(C)C)C(=O)NCC(N)=O` [KLGKKLGKLGKKLGKLGKKLG], the MIC in test [1], in test [2] and in test [3] was 4 µM (≈ 8.77 µg/mL) in each case.
As for `CSCC[C@H](NC(=O)[C@H](CCCN=C(N)N)NC(=O)[C@H](Cc1c[nH]c2ccccc12)NC(=O)[C@H](C)NC(=O)[C@H](Cc1c[nH]c2ccccc12)NC(=O)[C@H](CCCN=C(N)N)NC(=O)[C@H](CCCN=C(N)N)NC(=O)[C@H](C)NC(=O)[C@H](CCCCN)NC(=O)[C@@H](N)Cc1ccc(O)cc1)C(=O)N[C@@H](CCCCN)C(=O)O` [YKARRWAWRMK], the figures for the minimum inhibitory concentration (MIC) in test [1], in test [2] and in test [3] were 32.2 µM (≈ 50 µg/mL), 129 µM (≈ 200 µg/mL) and 32.2 µM (≈ 50 µg/mL), respectively.
In the case of `CC(C)C[C@H](NC(=O)[C@H](CCC(N)=O)NC(=O)[C@H](CCCCN)NC(=O)[C@H](CCCN=C(N)N)NC(=O)[C@H](Cc1ccccc1)NC(=O)[C@H](C)N)C(=O)N[C@@H](CCCCN)C(=O)N[C@@H](Cc1c[nH]c2ccccc12)C(=O)O` [AFRKQLKW], the MIC in test [3] was 3.72 µM (≈ 4 µg/mL). That is a single-digit micromolar value.
`CC(C)C[C@H](NC(=O)[C@H](Cc1ccccc1)NC(=O)[C@@H]1CCCN1C(=O)[C@H](Cc1c[nH]c2ccccc12)NC(=O)[C@H](C)NC(=O)[C@H](C)NC(=O)[C@@H]1CCCN1C(=O)[C@H](Cc1ccccc1)NC(=O)[C@H](CCCN=C(N)N)NC(=O)[C@H](CCCN=C(N)N)NC(=O)[C@@H](N)C(C)C)C(=O)N[C@@H](CCCN=C(N)N)C(=O)N[C@@H](CCCN=C(N)N)C(N)=O` [VRRFPAAWPFLRR] gave an MIC in test [3] of 90.5 µM (≈ 151 µg/mL).
Same read-out and setting: with `CC[C@H](C)[C@H](NC(=O)[C@H](CO)NC(=O)[C@H](Cc1ccccc1)NC(=O)[C@H](CC(C)C)NC(=O)[C@H](C)N)C(=O)N[C@@H](CC(C)C)C(=O)N[C@@H](CCCN=C(N)N)C(=O)NCC(=O)N[C@@H](CC(C)C)C(=O)N[C@@H](CCCCN)C(=O)N[C@@H](CCCCN)C(=O)N[C@@H](CC(C)C)C(=O)NCC(=O)N[C@@H](CC(N)=O)C(=O)N[C@@H](CCSC)C(=O)NCC(=O)N[C@@H](CCC(N)=O)C(=O)N[C@@H](C)C(=O)N[C@@H](Cc1ccccc1)C(=O)N[C@H](C(=O)N[C@@H](CC(N)=O)C(=O)N[C@H]1CSSC[C@@H](C(=O)O)NC(=O)[C@H](CCCCN)NC(=O)[C@H](CCCCN)NC(=O)[C@H](Cc2ccc(O)cc2)NC(=O)[C@H]([C@@H](C)CC)NC(=O)[C@H](CCCCN)NC1=O)C(C)C` [ALFSILRGLKKLGNMGQAFVNCKIYKKC] the figure was 8 µM (≈ 25.1 µg/mL).
On to `NC(=O)[C@H](CCCN=C(N)N)NC(=O)[C@H](Cc1c[nH]c2ccccc12)NC(=O)[C@H](Cc1ccc(O)cc1)NC(=O)[C@H](CCCN=C(N)N)NC(=O)[C@H](Cc1c[nH]c2ccccc12)NC(=O)[C@H](Cc1c[nH]c2ccccc12)NC(=O)[C@@H](N)CCCN=C(N)N` [RWWRYWR], for which the MIC amounted to 2.07 µM (≈ 2.5 µg/mL) in test [1], 16.6 µM (≈ 20 µg/mL) in test [2] and 8.28 µM (≈ 9.99 µg/mL) in test [3].
As for `CC[C@H](C)[C@H](NC(=O)[C@H](Cc1c[nH]c2ccccc12)NC(=O)[C@H](CCCCN)NC(=O)[C@@H]1CCCN1C(=O)[C@H](CC(C)C)NC(=O)[C@@H](N)CCCCN)C(=O)N[C@H](C(=O)N[C@@H](CCCCN)C(=O)N[C@H](C(=O)N[C@H](C(=O)N[C@@H](CC(N)=O)C(=O)N[C@@H](CCCCN)C(=O)N[C@@H](Cc1ccccc1)C(=O)N[C@H](C(=O)N[C@@H](CCCCN)C(=O)N[C@@H](CCCCN)C(=O)O)[C@@H](C)O)C(C)C)[C@@H](C)O)[C@@H](C)CC` [KLPKWIIKTVNKFTKK], the minimum inhibitory concentration (MIC) against Escherichia coli stood at 3.3 µM (≈ 6.51 µg/mL).
Regarding `CC[C@H](C)[C@H](NC(=O)[C@H](CC(=O)O)NC(=O)[C@@H](NC(=O)[C@@H](NC(=O)CN)C(C)C)C(C)C)C(=O)N[C@@H](CC(C)C)C(=O)N[C@@H](CCCCN)C(=O)NCC(=O)N[C@@H](C)C(=O)N[C@@H](C)C(=O)N[C@@H](CCCCN)C(=O)N[C@@H](CC(=O)O)C(=O)N[C@@H](CC(C)C)C(=O)N[C@@H](C)C(=O)NCC(=O)N[C@@H](Cc1cnc[nH]1)C(=O)O` [GVVDILKGAAKDLAGH], the MIC stood at 20 µM (≈ 31.3 µg/mL) in test [1] and 79.9 µM (≈ 125 µg/mL) in test [3].
On to `C[C@H](NC(=O)[C@H](C)NC(=O)[C@H](CCCCN)NC(=O)[C@H](CCCCN)NC(=O)[C@H](C)NC(=O)[C@H](C)NC(=O)[C@H](CCCCN)NC(=O)[C@H](C)NC(=O)[C@H](C)NC(=O)[C@H](CCCCN)NC(=O)[C@H](CCCCN)NC(=O)[C@H](C)NC(=O)[C@H](C)NC(=O)[C@@H](N)CCCCN)C(N)=O` [KAAKKAAKAAKKAA], for which the MIC in test [1] was greater than 256 µM; in test [3], 47 µM (≈ 63.7 µg/mL).
Turning to `CC(C)C[C@H](NC(=O)CN)C(=O)N[C@@H](CC(C)C)C(=O)N[C@@H](CCCCN)C(=O)N[C@@H](CCCN=C(N)N)C(N)=O` [GLLKR], the MIC in test [1] and in test [3] was greater than 52.9 µM in each case.
`CC[C@H](C)[C@H](NC(=O)[C@H](CCCCN)NC(=O)[C@@H](N)Cc1ccccc1)C(=O)N[C@@H](CCCCN)C(=O)N[C@@H](C)C(=O)N[C@@H](CO)C(=O)N[C@@H](CCCCN)C(=O)N[C@@H](CCCCN)C(=O)N[C@@H](CC(C)C)C(=O)N[C@@H](CC(C)C)C(=O)N[C@@H](CCCCN)C(=O)N[C@@H](CCCCN)C(=O)N[C@H](C(=O)NCC(=O)N[C@@H](CCCCN)C(=O)NCC(=O)N[C@@H](C)C(=O)N[C@@H](CC(C)C)C(=O)NCC(=O)N[C@@H](C)C(=O)N[C@H](C(=O)N[C@@H](C)C(=O)N[C@@H](CCCCN)C(=O)N[C@@H](C)C(=O)N[C@@H](CC(C)C)C(=O)N[C@@H](C)C(=O)N[C@@H](CCC(N)=O)C(=O)N[C@@H](CCC(N)=O)C(=O)N[C@@H](C)C(=O)O)C(C)C)C(C)C` [FKIKASKKLLKKVGKGALGAVAKALAQQA]: the MIC in test [2] turned out to be 0.5 µM (≈ 1.48 µg/mL).
For `CC[C@H](C)[C@H](NC(=O)CN)C(=O)N[C@@H](CCSC)C(=O)N[C@@H](CC(=O)O)C(=O)N[C@@H](CO)C(=O)N[C@H](C(=O)N[C@@H](CCCCN)C(=O)N[C@@H](CC(N)=O)C(=O)N[C@H](C(=O)N[C@@H](C)C(=O)N[C@@H](CCCCN)C(=O)N[C@@H](CC(N)=O)C(=O)N[C@H](C(=O)N[C@@H](C)C(=O)NCC(=O)N[C@@H](CCC(N)=O)C(=O)N[C@@H](CC(C)C)C(=O)N[C@@H](CC(C)C)C(=O)N[C@@H](CC(=O)O)C(=O)N[C@@H](CCCCN)C(=O)N[C@@H](CC(C)C)C(=O)N[C@@H](CCCCN)C(=O)N[C@H]1CSSC[C@@H](C(=O)O)NC(=O)CNC(=O)[C@H]([C@@H](C)O)NC(=O)[C@H]([C@@H](C)CC)NC(=O)[C@H](CCCCN)NC1=O)[C@@H](C)CC)C(C)C)C(C)C` [GIMDSVKNVAKNIAGQLLDKLKCKITGC], in test [3], the MIC was found to be 16 µM (≈ 47.4 µg/mL).
Take `CSCC[C@H](NC(=O)[C@H](CCCCN)NC(=O)[C@H](CCCCN)NC(=O)[C@H](CCCCN)NC(=O)[C@H](CCCN=C(N)N)NC(=O)[C@H](CCCN=C(N)N)NC(=O)[C@H](Cc1ccc(O)cc1)NC(=O)[C@@H](N)CCCN=C(N)N)C(=O)N[C@@H](CCCCN)C(=O)N[C@@H](CCCCN)C(=O)N[C@@H](C)C(=O)N[C@@H](CC(C)C)C(=O)N[C@@H](CCC(N)=O)C(=O)N[C@@H](Cc1ccc(O)cc1)C(N)=O` [RYRRKKKMKKALQY]: the minimal inhibitory concentration (MIC) in test [2] and in test [3] was greater than 100 µM throughout.
Take `CC[C@H](C)[C@H](NC(=O)CN)C(=O)NCC(=O)N[C@@H](CCCCN)C(=O)N[C@@H](Cc1ccccc1)C(=O)N[C@@H](CC(C)C)C(=O)N[C@@H](Cc1cnc[nH]1)C(=O)N[C@@H](CO)C(=O)N[C@@H](C)C(=O)N[C@@H](CCCCN)C(=O)N[C@@H](CCCCN)C(=O)N[C@@H](Cc1ccccc1)C(=O)NCC(=O)N[C@@H](CCCCN)C(=O)N[C@@H](C)C(=O)N[C@@H](Cc1ccccc1)C(=O)N[C@H](C(=O)NCC(=O)N[C@@H](CCC(=O)O)C(=O)N[C@H](C(=O)N[C@@H](CCSC)C(=O)N[C@@H](CC(N)=O)C(=O)N[C@@H](CO)C(=O)NCC(=O)NCC(=O)N[C@@H](CS)C(N)=O)[C@@H](C)CC)C(C)C` [GIGKFLHSAKKFGKAFVGEIMNSGGC]: the minimum inhibitory concentration (MIC) in test [3] turned out to be 3.1 µM (≈ 8.32 µg/mL).
Consider `CSCC[C@H](NC(=O)[C@H](CCCN=C(N)N)NC(=O)[C@H](Cc1c[nH]c2ccccc12)NC(=O)[C@H](C)NC(=O)[C@H](Cc1c[nH]c2ccccc12)NC(=O)[C@H](CCCN=C(N)N)NC(=O)[C@H](CCCN=C(N)N)NC(=O)[C@H](C)NC(=O)[C@H](CCCCN)NC(=O)[C@H](Cc1ccccc1)NC(=O)[C@H](Cc1c[nH]c2ccccc12)NC(=O)[C@H](C)NC(=O)[C@@H]1CCCN1)C(=O)N[C@@H](CC(C)C)C(=O)N[C@@H](CCCCN)C(=O)N[C@@H](CCCCN)C(=O)N[C@@H](C)C(=O)N[C@@H](C)C(=O)O` [PAWFKARRWAWRMLKKAA], for which the MIC stood at 2.2 µM (≈ 5 µg/mL) in test [1] and 4.4 µM (≈ 10 µg/mL) in test [3].
Consider `CC[C@H](C)[C@H](NC(=O)[C@H](CCCN=C(N)N)NC(=O)[C@@H](NC(=O)[C@H](CC(C)C)NC(=O)[C@H](CC(C)C)NC(=O)CN)[C@@H](C)O)C(=O)N[C@@H](CCCCN)C(=O)N[C@H](C(=O)N[C@@H](CC(C)C)C(=O)N[C@@H](CC(C)C)C(N)=O)[C@@H](C)O` [GLLTRIKTLL], for which the minimum inhibitory concentration (MIC) in test [3] worked out at 200 µM (≈ 225 µg/mL).
Turning to `CC(C)C[C@H](NC(=O)[C@H](CCCCN)NC(=O)[C@H](CCCCN)NC(=O)[C@H](C)NC(=O)[C@H](CC(C)C)NC(=O)[C@@H](N)CCCCN)C(=O)N[C@@H](C)C(N)=O` [KLAKKLA], the MIC in test [1], in test [2] and in test [3] was greater than 100 µM in each case.
